The source of these data is patent US10640466B2, “Anthracene based compounds and their uses” (UNIVERSITY OF HERTFORDSHIRE HIGHER EDUCATION CORPORATION, priority 2015, dated 2020).

One data set concerns the target T1, S100P/RAGE function (Homo sapiens, UniProt P25815).
T1 sequence (P25815 1-95): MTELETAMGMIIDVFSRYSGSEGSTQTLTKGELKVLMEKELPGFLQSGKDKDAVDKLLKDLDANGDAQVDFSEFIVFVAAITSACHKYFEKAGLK
Particulars: in vitro studies; cited from earlier work.

For data set [1], the system named is Panc-1 cells. The data set can be described thus: MTS cell proliferation assay, Panc-1. It counts as cell-based, Human. The procedure:
(§1) FIG. 3 illustrates the anti-proliferative effect of cromolyn on pancreatic cancer cells. FIG. 3A illustrates BxPC-3, and FIG. 3B illustrates Panc-1 cells. Cells were seeded overnight (10^4 cells/well) in 96 well plates in complete medium supplemented with 10% v/v FBS, 2 mM L-glutamine and 200 U Penicillin/Streptomycin solution. Compounds were serially diluted into the wells and cell proliferation assessed using MTS assay after 24, 48, and 72 hours. Results are expressed as mean±SEM with n=4. P value of <0.05 (*), <0.01 (**), <0.001 (***) and <0.0001 (****) was determined relative to control using 2-Way ANOVA. Post-test comparisons were made using Bonferroni test at 95% confidence interval;
FIG. 5 illustrates anti-proliferative effect of compounds 2 (A), 3 (B), 8 (C), 26 (D) and 7 (E) on Panc-1 cells. Panc-1 cells were seeded overnight (10^4 cells/well) in 96-well plates in complete DMEM medium supplemented with 10% v/v FBS, 1% v/v L-glutamine and 200 U Penicillin/Streptomycin solution. Compounds were serially diluted into the wells and cell proliferation analysed using MTS assay after 24, 48, and 72 hours. Results are expressed as mean±SEM with n=4. P value of <0.05 (*), <0.01 (**), <0.001 (***) and <0.0001 (****) was determined relative to control using 2-Way ANOVA. Post-test comparisons were made Bonferroni test at 95% confidence interval; and
(§2) All reagents for in vitro studies were purchased from Sigma Aldrich (Dorset, UK) unless otherwise specified. Human pancreatic cancer cells, Panc-1 (ATCC® CRL-1469™) and BxPC-3 (ATCC® CRL-1687™), were purchased from LGC Standards (LGC Ltd., Middlesex, UK). Both were cultured in their respective culture medium—Dulbecco Modified Eagle Medium (DMEM) for Panc-1 and RPMI-1640 for BxPC-3 supplemented with 10% v/v Foetal Bovine Serum (FBS), 200U Penicillin/Streptomycin solution, and 2 mM L-glutamine. Both cells were maintained at 37° C. in a 5% humidified CO2 atmosphere and passaged at least three times a week when they have reached about 70% confluency using a standardised trypsinisation protocol. Cromolyn was purchased as a sodium salt while compounds 2, 3, 7, 8 and 26 were synthesised, characterised and purified at the University of Hertfordshire. […]
Pancreatic cancer cells (1×10^5 cells/mL) in 100 μL complete cell culture medium were plated in 96-well plates (Sigma-Aldrich, Poole, UK) and incubated overnight at 37° C., 5% CO2 atmosphere. […] Plates were incubated for 90 minutes before reading the absorbance at 492 nm using a Multiskan Ascent 96/384 plate reader (Thermo Scientific, Loughborough, UK). […]
For data analysis, background noise (media only wells) was subtracted from all wells. DMSO absorbance at 1, 10, 100 and 1000 μM was subtracted from wells with sample compounds before an average of all four replicates was taken. […]
On the technique in general: Tetrazolium dyes change colour on reduction, which living cells bring about.

Data set [2] concerns BxPC-3 cells. In words: Matrigel invasion assay, BxPC-3. Type of data set: cell-based, Human. The following applies: 48 h. On the procedure:
FIG. 2 illustrates the effect of 2 and cromolyn (100 μM) BxPC-3 invasion. FIG. 2A illustrates the results when compound 2 was added to serum-free medium in the upper compartment of Matrigel invasion chamber along with the BxPC-3 cells; while media with 10% serum was added to lower chamber. After 48 hours, cells that had invaded onto the lower surface of the membrane were stained using Giemsa stain and cells in 5 different fields were counted for invasion studies. Results are expressed as the mean±SEM. P value of <0.05 (*), <0.01 (**) and <0.001 (***) was determined relative to control using 2-Way ANOVA. Photographs of representative membranes for cells after Giemsa staining when the cells were exposed in FIGS. 2B, 2C, 2D and 2E;
(§3) Compound 2 was one of seventeen compounds from the virtual screen that were subjected to a Matrigel invasion assay (Corning®, USA) screening against BxPC-3 and Panc-1 pancreatic cancer cells.
All reagents for in vitro studies were purchased from Sigma Aldrich (Dorset, UK) unless otherwise specified. Human pancreatic cancer cells, Panc-1 (ATCC® CRL-1469™) and BxPC-3 (ATCC® CRL-1687™), were purchased from LGC Standards (LGC Ltd., Middlesex, UK). Both were cultured in their respective culture medium—Dulbecco Modified Eagle Medium (DMEM) for Panc-1 and RPMI-1640 for BxPC-3 supplemented with 10% v/v Foetal Bovine Serum (FBS), 200U Penicillin/Streptomycin solution, and 2 mM L-glutamine. […]
(§4) Matrigel invasion assay were carried out using transwell inserts with 8-μm pore size (BD-Bioscience, Oxford, UK) and Biocoat Matrigel Invasion plates (BD-Bioscience, Oxford, UK). […] The number of cells from five adjacent fields of view from each of the membranes were counted at a ×10 magnification to obtain the average number of cells per field. Data are expressed as the percent invasion through the Matrigel matrix and membrane relative to the invasion through the control membrane.

For data set [3], the system named is Panc-1 cells. The data set can be described thus: Matrigel invasion assay, Panc-1. Type of data set: cell-based, Human. The following applies: data not shown. On the procedure: as §3
as §2, with “protocol.” for “protocol. Cromolyn was purchased as a sodium salt while compounds 2, 3, 7, 8 and 26 were synthesised, characterised and purified at the University of Hertfordshire.”
as §4

In data set [4] the test system is BxPC-3 cells. In words: MTS cell proliferation assay, BxPC-3. The following applies: for anti-proliferative effect on BxPC-3: 1 and 10 μM. It counts as cell-based, Human. The procedure: as §1
FIG. 4 illustrates the anti-proliferative effects of compounds 2 (A), 3 (B), 8 (C), 26 (D) and 7 (E) on BxPC-3 cells. BxPC-3 cells were seeded overnight (10^4 cells/well) in 96-well plates in complete RPMI-1640 medium supplemented with 10% v/v FBS, 2 mM L-glutamine and 200 U Penicillin/Streptomycin solution. Compounds were serially diluted into the wells and cell proliferation assessed using MTS assay after 24, 48, and 72 hours. Results are expressed as mean±SEM with n=4. P value of <0.05 (*), <0.01 (**), <0.001 (***) and <0.0001 (****) was determined relative to control using 2-Way ANOVA. Post-test comparisons were made using Bonferroni test at 95% confidence interval;
All reagents for in vitro studies were purchased from Sigma Aldrich (Dorset, UK) unless otherwise specified. Human pancreatic cancer cells, Panc-1 (ATCC® CRL-1469™) and BxPC-3 (ATCC® CRL-1687™), were purchased from LGC Standards (LGC Ltd., Middlesex, UK). Both were cultured in their respective culture medium—Dulbecco Modified Eagle Medium (DMEM) for Panc-1 and RPMI-1640 for BxPC-3 supplemented with 10% v/v Foetal Bovine Serum (FBS), 200U Penicillin/Streptomycin solution, and 2 mM L-glutamine. Both cells were maintained at 37° C. in a 5% humidified CO2 atmosphere and passaged at least three times a week when they have reached about 70% confluency using a standardised trypsinisation protocol. Cromolyn was purchased as a sodium salt while compounds 2, 3, 7, 8 and 26 were synthesised, characterised and purified at the University of Hertfordshire. To prepare stock concentrations (10 mM), cromolyn was dissolved in distilled water while compounds 2, 3, 7, 8 and 26 were dissolved in DMSO.
(§5) Pancreatic cancer cells (1×10^5 cells/mL) in 100 μL complete cell culture medium were plated in 96-well plates (Sigma-Aldrich, Poole, UK) and incubated overnight at 37° C., 5% CO2 atmosphere. Cromolyn and compounds 2, 3, 7, 8 and 26 were prepared from stocks of 10 mM in serum-free medium and serially diluted to give 1, 10, 100 and 1000 μM. Control samples for this study included cells without any drugs, cell samples with DMSO at the corresponding concentration(s) and media-only samples. Cells were incubated with test compounds for 24, 48 and 72 h. At each time point i.e. 24, 48 and 72 h, CellTiter 960 AQueous Non-Radioactive Cell Proliferation Assay (MTS) (Promega, UK) was added to each well (1:5). Plates were incubated for 90 minutes before reading the absorbance at 492 nm using a Multiskan Ascent 96/384 plate reader (Thermo Scientific, Loughborough, UK). The experiments were repeated three times.
For data analysis, background noise (media only wells) was subtracted from all wells. DMSO absorbance at 1, 10, 100 and 1000 μM was subtracted from wells with sample compounds before an average of all four replicates was taken. Data is plotted as mean from three repeats ±SEM with p value set at 0.05.

Data set [5] in a line: Solubility in the culture media of the proliferation assay. Type of data set: physicochemical. The following applies: at 100 μM and above. On the procedure:
as §5

A further data set deals with T2, S100P binding to RAGE (Homo sapiens, UniProt P25815).
T2 sequence (P25815 1-95): T1 sequence (P25815 1-95)
The data set can be described thus: S100P/RAGE functional assay (ELISA of S100P-RAGE binding). Particulars: initial results. On the procedure:
FIGS. 6A to 6H illustrate the effect of drugs on the binding between 1 μM S100P and 30 nM RAGE in ELISA assay wherein n=3 from one plate.
ELISA assay of S100P-RAGE binding was carried out using the method of Padilla et al. (Padilla, L., Dakhel, S., & Hernandez, J. (2014). S100 to receptor for advanced glycation end-products binding assay: Looking for inhibitors. Biochemical and Biophysical Research Communications, 446(1), 404-409. doi:10.1016/j.bbrc.2014.02.143). FIGS. 6A to 6H illustrate the effect of drugs on the binding between 1 μM S100P and 30 nM RAGE in ELISA assay wherein n=3 from one plate.

The subject of data set [6] is BxPC-3 cells. In words: Trypan blue counting of BxPC-3 cells. It counts as cell-based, Human. Particulars: 1 μM.
For data set [7] the following is noted: in vivo; cited from earlier work.
[8] abbreviates: except at the higher concentration of 1000 μM.

For the molecule 5-methyl cromolyn, the “concentration inhibiting S100P/RAGE function” value at S100P/RAGE function is reported as 100 nmol/L.
Consider `O=C(O)c1cccc(N2C(=O)C3C4c5ccccc5C([N+](=O)[O-])(c5ccccc54)C3C2=O)c1` (centres unmarked) [Compound 2, 3-(9-Nitro-12,14-dioxo-9,10-dihydro-9,10-[3,4]epipyrroloanthracen-13-yl)benzoic acid], for which, in the data set with Panc-1 cells [1], the “anti-proliferation effect on Panc-1 cells” value (from here on “anti-proliferation effect”) is “a similar effect was also observed”. Further, the “reduction in invasion of BxPC-3 cells across the Matrigel matrix” value is 17% with BxPC-3 cells [2] (100 μM) and 100% with BxPC-3 cells [2] (500 μM). Also, the “effect on invasion of Panc-1 cells” value with Panc-1 cells [3] is on record as “No effect”. Also, the “inhibition of growth of BxPC-3 relative to control” value in the data set on BxPC-3 cells [4] (all three concentrations, after 72 h, p<0.001) is “noticeable inhibition of growth”.
Regarding `CCOC(=O)c1cccc(N2C(=O)C3C4c5ccccc5C([N+](=O)[O-])(c5ccccc54)C3C2=O)c1` (centres unmarked) [Compound 3, Ethyl 3-(9-nitro-12,14-dioxo-9,10-dihydro-9,10-[3,4]epipyrroloanthracen-13-yl)benzoate], the “solubility issues in the culture media” value in data set [5] is reported as “precipitating in the culture media”. The “anti-proliferative effect on BxPC-3 compared to 2” value with BxPC-3 cells [4] (after 24 h) is “more pronounced anti-proliferative effect”. Moreover, the “state of BxPC-3 cells compared to the control” value in the data set with BxPC-3 cells [4] (after 48 h) is “the cells appear to be recovering albeit only slightly”.
As for `O=C1C2C3c4ccccc4C([N+](=O)[O-])(c4ccccc43)C2C(=O)N1c1ccccc1` (centres unmarked) [Compound 7, 9-Nitro-13-phenyl-9,10-dihydro-9,10-[3,4]epipyrroloanthracene-12,14-dione], the “anti-proliferation effect” value in the data set with Panc-1 cells [1] is on record as “inhibition was unfortunately observed”. The “solubility issues in the culture media” value in data set [5] is given as “precipitating in the culture media”. Also, the “anti-proliferative effect on BxPC-3” value with BxPC-3 cells [4] is listed as “inhibited proliferation”.
As for `O=C(O)c1ccc(N2C(=O)C3C4c5ccccc5C([N+](=O)[O-])(c5ccccc54)C3C2=O)cc1` (centres unmarked) [Compound 8, 4-(9-Nitro-12,14-dioxo-9,10-dihydro-9,10-[3,4]epipyrroloanthracen-13-yl)benzoic acid], the “solubility issues in the culture media” value in [5] is on record as “precipitating in the culture media”. Also, at S100P binding to RAGE, the “inhibition of S100P binding to RAGE” value is listed as “nanomolar inhibition”. The “viability of BxPC-3 cells by trypan blue counting” value in the data set on BxPC-3 cells [6] is recorded as “still viable”. Besides, the “metabolic activity of BxPC-3 cells” value with BxPC-3 cells [4] (1 μM) is on record as “no metabolic activity was observed”. For the same molecule, in the data set on BxPC-3 cells [4], the “anti-proliferative effect on BxPC-3” value is listed as “more pronounced”.
`O=C(O)c1cccc(N2C(=O)C3C4c5ccccc5C(c5ccccc54)C3C2=O)c1` (centres unmarked) [Compound 26, 3-(12,14-Dioxo-9,10-dihydro-9,10-[3,4]epipyrroloanthracen-13-yl)benzoic acid]: the “anti-proliferation effect” value in the data set with Panc-1 cells [1] is recorded as “inhibition was unfortunately observed”. Besides, the “anti-proliferative effect on BxPC-3” value with BxPC-3 cells [4] is reported as “inhibited proliferation”.
For the molecule `O=C(O)c1cc(=O)c2c(OCC(O)COc3cccc4oc(C(=O)O)cc(=O)c34)cccc2o1` [cromolyn, reference compound], the “effect against the proliferation of Panc-1 cells” value in the data set with Panc-1 cells [1] (setting [8]) was “no significant effect”. Further, the bioavailability result in [7] is listed as “low bioavailability”. In addition, in the data set with BxPC-3 cells [2] (100 μM), the “reduction in invasion of BxPC-3 cells across the Matrigel matrix” value stood at 20%. In addition, the “effect against the proliferation of BxPC-3 cells” value in the data set with BxPC-3 cells [4] (setting [8]) is recorded as “no significant effect”.
